Usually IC50 stands for the point on the concentration scale where inhibition reaches its midpoint. A low value points to higher potency.

Some results are limits rather than exact numbers.

The target of this test is Acetylcholinesterase (Electrophorus electricus, UniProt O42275).
Sequence of Acetylcholinesterase (O42275 whole entry): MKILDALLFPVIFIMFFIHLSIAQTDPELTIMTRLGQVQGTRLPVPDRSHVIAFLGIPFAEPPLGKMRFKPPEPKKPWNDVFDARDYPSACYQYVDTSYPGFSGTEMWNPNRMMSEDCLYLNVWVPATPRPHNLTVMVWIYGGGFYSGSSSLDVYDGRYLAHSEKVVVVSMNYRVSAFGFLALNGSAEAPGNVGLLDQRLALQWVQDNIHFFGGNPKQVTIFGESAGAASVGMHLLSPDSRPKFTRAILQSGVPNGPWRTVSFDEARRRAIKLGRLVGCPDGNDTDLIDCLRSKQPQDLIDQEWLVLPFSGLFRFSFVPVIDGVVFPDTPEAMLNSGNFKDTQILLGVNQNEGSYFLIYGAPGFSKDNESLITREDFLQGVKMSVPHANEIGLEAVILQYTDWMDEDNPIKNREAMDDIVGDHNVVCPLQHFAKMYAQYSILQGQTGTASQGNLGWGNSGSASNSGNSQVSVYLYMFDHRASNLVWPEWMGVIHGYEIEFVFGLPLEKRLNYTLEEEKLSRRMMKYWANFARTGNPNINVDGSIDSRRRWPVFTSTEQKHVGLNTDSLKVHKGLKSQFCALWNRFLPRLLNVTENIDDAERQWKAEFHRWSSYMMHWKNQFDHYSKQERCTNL
Description: Inhibition of Electrophorus electricus AChE after 120 secs by Ellman spectroscopic method
The molecule `CC(C)=CCc1c(O)c(C(=O)CC(C)C)c2oc(=O)cc(-c3ccccc3)c2c1O` [ISOMAMMEISIN] registered an IC50 of more than 20 µM.

`CCC(C)C(=O)c1c(O)c2c(c3c(-c4ccccc4)cc(=O)oc13)OC(C)(CCC=C(C)C)C=C2` (centres undefined) [MESUAGENIN B] yielded an IC50 of 0.7 µM.

In turn, `CCC(C)C(=O)c1c(O)c(C/C=C(\C)CCC=C(C)C)c(O)c2c(-c3ccccc3)cc(=O)oc12` (centres undefined) returned an IC50 of 3.06 µM.

For the molecule `CC(C)CC(=O)c1c(O)c2c(c3c(-c4ccccc4)cc(=O)oc13)OC(C)(C)C=C2` [ISOMAMMEIGIN], the IC50 is more than 20 µM.

The molecule `CC(C)CCC(C)(O)C1(C)Cc2c(O)c(C(=O)CC(C)C)c3oc(=O)cc(-c4ccccc4)c3c2O1` (centres undefined) [MESUAGENIN D] came in with an IC50 of 8.73 µM.

Molecule `CC(C)=CCC/C(C)=C/Cc1c(O)c(C(=O)CC(C)C)c2oc(=O)cc(-c3ccccc3)c2c1O` had an IC50 of more than 20 µM.

Turning to `CC(C)=CCCC1(C)C=Cc2c(O)c(C(=O)CC(C)C)c3oc(=O)cc(-c4ccccc4)c3c2O1` (centres undefined) [MESUAGENIN A], the IC50 was 1.06 µM.

For `CC(C)=CCC/C(C)=C/Cc1c(O)c(C(=O)C(C)C)c2oc(=O)cc(-c3ccccc3)c2c1O` [MESUAGENIN C], the IC50 is more than 20 µM.

The molecule `CC(C)CC(=O)c1c(O)c2c(c3c(-c4ccccc4)cc(=O)oc13)OC(C(C)(C)O)C2` (centres undefined) returned an IC50 of more than 20 µM.

The record behind these values is ChEMBL document CHEMBL1275353, “4-Phenylcoumarins from Mesua elegans with acetylcholinesterase inhibitory activity” (Bioorg Med Chem, 2010).
